Assay results from publication PMC10046961, “High-Throughput Screening Assay for Detecting Drug-Induced Changes in Synchronized Neuronal Oscillations and Potential Seizure Risk Based on Ca^2+ Fluorescence Measurements in Human Induced Pluripotent Stem Cell (hiPSC)-Derived Neuronal 2D and 3D Cultures” (Cells, 2023).
Like-named read-outs stand apart in the source and are kept apart here.

Key:
[1] = test system: hiPSC-derived neurons co-cultured with human primary astrocytes in 2D; test: Ca2+ transient oscillation assay (FDSS), 2D co-culture; type: cell-based; conditions: Homo sapiens, 1 h, 60 min
How it was run: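 Cultures were 10,000 CW50065 hiPSC excitatory neurons plus 2500 primary human astrocytes per well. Recordings used Cal-520 dye in HBSS/HEPES/glucose at 37 °C, with a 470/540 nm read at 2 Hz. Oscillations were stabilized with 0.04% DMSO, read for 20 min, then read again 60 min after compound addition (final DMSO 0.1%).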

[2] = test system: hiPSC-derived neurons co-cultured with human primary astrocytes in 3D; test: Ca2+ transient oscillation assay (FDSS), 3D spheroids; type: cell-based; conditions: 60 min
How it was run: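 Fura-2 fluorescence was read twice for 20 min each: a baseline 10 min after 0.04% DMSO, and again 60 min after compound addition at nominal final concentration. The 3D co-cultures (1:1 hiPSC neurons from a donor and human astrocytes, 8000 each) matured 5 weeks in BrainPhys medium after a 1-week differentiation.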

[3] = ref PharmaPendium, cited from earlier work
[4] = read-out: Area under the curve - 2D Mean
[5] = read-out: Peak amplitude - 2D Mean
[6] = read-out: Peak-to-peak interval - 2D Mean
[7] = Table 1, peak plasma concentration in men, free therapeutic Cmax
[8] = Table 2, highest plasma concentration in humans after the therapeutic dose

CC(=O)Oc1ccccc1C(=O)O [Aspirin]
activation at 3.7 µM [1, 4]: 48.5% | activation at 3.7 µM ([1]; read-out: Peak Number—2D Mean): -10.2% | activation at 3.7 µM [1, 5]: 13.1% | activation at 3.7 µM ([1]; read-out: Peak width - 2D Mean): 43.6% | activation at 3.7 µM [1, 6]: 15.5% | activation at 11.11 µM [1, 4]: 25.7% | activation at 11.11 µM ([1]; read-out: Peak Number—2D Mean): 17.6% | activation at 11.11 µM [1, 5]: 4.2% | activation at 11.11 µM ([1]; read-out: Peak width - 2D Mean): 25.9% | activation at 11.11 µM [1, 6]: 1.8% | activation at 33.33 µM [1, 4]: 37.6% | activation at 33.33 µM ([1]; read-out: Peak Number—2D Mean): 10.1% | activation at 33.33 µM [1, 5]: 6.2% | activation at 33.33 µM ([1]; read-out: Peak width - 2D Mean): 38.3% | activation at 33.33 µM [1, 6]: -0.5% | activation at 100 µM [1, 4]: 30% | activation at 100 µM ([1]; read-out: Peak Number—2D Mean): 27.9% | activation at 100 µM [1, 5]: 3.9% | activation at 100 µM ([1]; read-out: Peak width - 2D Mean): 32.1% | activation at 100 µM [1, 6]: -17% | Area under the curve - 3D Mean ([2]; 3.7 µM): 139.0 % change from baseline | Peak Number—3D Mean ([2]; 3.7 µM): −0.4 % change from baseline | Peak amplitude - 3D Mean ([2]; 3.7 µM): 129.1 % change from baseline | Peak width - 3D Mean ([2]; 3.7 µM): 4.2 % change from baseline | Peak-to-peak interval - 3D Mean ([2]; 3.7 µM): 10.9 % change from baseline | Area under the curve - 3D Mean ([2]; 11.11 µM): 139.2 % change from baseline | Peak Number—3D Mean ([2]; 11.11 µM): 0.0 % change from baseline | Peak amplitude - 3D Mean ([2]; 11.11 µM): 138.1 % change from baseline | Peak width - 3D Mean ([2]; 11.11 µM): 0.3 % change from baseline | Peak-to-peak interval - 3D Mean ([2]; 11.11 µM): −2.2 % change from baseline | Area under the curve - 3D Mean ([2]; 33.33 µM): 147.8 % change from baseline | Peak Number—3D Mean ([2]; 33.33 µM): 10.0 % change from baseline | Peak amplitude - 3D Mean ([2]; 33.33 µM): 135.8 % change from baseline | Peak width - 3D Mean ([2]; 33.33 µM): 5.0 % change from baseline | Peak-to-peak interval - 3D Mean ([2]; 33.33 µM): −1.7 % change from baseline | Area under the curve - 3D Mean ([2]; 100 µM): 133.2 % change from baseline | Peak Number—3D Mean ([2]; 100 µM): −8.2 % change from baseline | Peak amplitude - 3D Mean ([2]; 100 µM): 123.5 % change from baseline | Peak width - 3D Mean ([2]; 100 µM): 4.7 % change from baseline | Peak-to-peak interval - 3D Mean ([2]; 100 µM): 6.7 % change from baseline | Free Cmax [3, 7]: 40 to 160 nM | Free Cmax [3, 8]: 40 to 160 nM

NC(=O)N1c2ccccc2C=Cc2ccccc21 [Carbamazepine]
activation at 3.7 µM [1, 4]: 31.5% | activation at 3.7 µM ([1]; read-out: Peak Number—2D Mean): -15.3% | activation at 3.7 µM [1, 5]: 16.5% | activation at 3.7 µM ([1]; read-out: Peak width - 2D Mean): 19% | activation at 3.7 µM [1, 6]: 0.8% | activation at 11.11 µM [1, 4]: 62% | activation at 11.11 µM ([1]; read-out: Peak Number—2D Mean): -17% | activation at 11.11 µM [1, 5]: 8.5% | activation at 11.11 µM ([1]; read-out: Peak width - 2D Mean): 66.5% | activation at 11.11 µM [1, 6]: 45.8% | activation at 33.33 µM [1, 4]: -39.7% | activation at 33.33 µM ([1]; read-out: Peak Number—2D Mean): -76.8% | activation at 33.33 µM [1, 5]: -52% | activation at 33.33 µM ([1]; read-out: Peak width - 2D Mean): -36.7% | activation at 33.33 µM [1, 6]: 45% | activation at 100 µM [1, 4]: -100% | activation at 100 µM ([1]; read-out: Peak Number—2D Mean): -100% | activation at 100 µM [1, 5]: -100% | activation at 100 µM ([1]; read-out: Peak width - 2D Mean): -100% | activation at 100 µM [1, 6]: -100% | Area under the curve - 3D Mean ([2]; 3.7 µM): 122.1 % change from baseline | Peak Number—3D Mean ([2]; 3.7 µM): 11.4 % change from baseline | Peak amplitude - 3D Mean ([2]; 3.7 µM): 114.1 % change from baseline | Peak width - 3D Mean ([2]; 3.7 µM): 2.9 % change from baseline | Peak-to-peak interval - 3D Mean ([2]; 3.7 µM): −4.9 % change from baseline | Area under the curve - 3D Mean ([2]; 11.11 µM): 121.7 % change from baseline | Peak Number—3D Mean ([2]; 11.11 µM): 3.9 % change from baseline | Peak amplitude - 3D Mean ([2]; 11.11 µM): 114.1 % change from baseline | Peak width - 3D Mean ([2]; 11.11 µM): 2.8 % change from baseline | Peak-to-peak interval - 3D Mean ([2]; 11.11 µM): 9.5 % change from baseline | Area under the curve - 3D Mean ([2]; 33.33 µM): 107.4 % change from baseline | Peak Number—3D Mean ([2]; 33.33 µM): −19.3 % change from baseline | Peak amplitude - 3D Mean ([2]; 33.33 µM): 93.5 % change from baseline | Peak width - 3D Mean ([2]; 33.33 µM): 5.1 % change from baseline | Peak-to-peak interval - 3D Mean ([2]; 33.33 µM): 33.5 % change from baseline | Area under the curve - 3D Mean ([2]; 100 µM): 173.0 % change from baseline | Peak Number—3D Mean ([2]; 100 µM): −21.5 % change from baseline | Peak amplitude - 3D Mean ([2]; 100 µM): 85.2 % change from baseline | Peak width - 3D Mean ([2]; 100 µM): 43.8 % change from baseline | Peak-to-peak interval - 3D Mean ([2]; 100 µM): 25.1 % change from baseline | Free Cmax [3, 7]: 10000 nM | Free Cmax [3, 8]: 10000 nM

CN(C)CCCN1c2ccccc2Sc2ccc(Cl)cc21 [Chlorpromazine]
activation at 0.11 µM [1, 4]: 26.5% | activation at 0.11 µM ([1]; read-out: Peak Number—2D Mean): -27% | activation at 0.11 µM [1, 5]: 8.7% | activation at 0.11 µM ([1]; read-out: Peak width - 2D Mean): 18% | activation at 0.11 µM [1, 6]: 47.2% | activation at 0.33 µM [1, 4]: 36% | activation at 0.33 µM ([1]; read-out: Peak Number—2D Mean): -29.5% | activation at 0.33 µM [1, 5]: 4% | activation at 0.33 µM ([1]; read-out: Peak width - 2D Mean): 38.5% | activation at 0.33 µM [1, 6]: 48% | activation at 1 µM [1, 4]: 10.7% | activation at 1 µM ([1]; read-out: Peak Number—2D Mean): -59.8% | activation at 1 µM [1, 5]: -4.3% | activation at 1 µM ([1]; read-out: Peak width - 2D Mean): 13.8% | activation at 1 µM [1, 6]: 151% | activation at 3 µM [1, 4]: -100% | activation at 3 µM ([1]; read-out: Peak Number—2D Mean): -100% | activation at 3 µM [1, 5]: -100% | activation at 3 µM ([1]; read-out: Peak width - 2D Mean): -100% | activation at 3 µM [1, 6]: -100% | Area under the curve - 3D Mean ([2]; 0.11 µM): 128.5 % change from baseline | Peak Number—3D Mean ([2]; 0.11 µM): 6.5 % change from baseline | Peak amplitude - 3D Mean ([2]; 0.11 µM): 96.7 % change from baseline | Peak width - 3D Mean ([2]; 0.11 µM): 13.3 % change from baseline | Peak-to-peak interval - 3D Mean ([2]; 0.11 µM): 10.0 % change from baseline | Area under the curve - 3D Mean ([2]; 0.33 µM): 129.9 % change from baseline | Peak Number—3D Mean ([2]; 0.33 µM): −2.6 % change from baseline | Peak amplitude - 3D Mean ([2]; 0.33 µM): 100.7 % change from baseline | Peak width - 3D Mean ([2]; 0.33 µM): 13.6 % change from baseline | Peak-to-peak interval - 3D Mean ([2]; 0.33 µM): 12.5 % change from baseline | Area under the curve - 3D Mean ([2]; 1 µM): 132.1 % change from baseline | Peak Number—3D Mean ([2]; 1 µM): 11.5 % change from baseline | Peak amplitude - 3D Mean ([2]; 1 µM): 102.4 % change from baseline | Peak width - 3D Mean ([2]; 1 µM): 13.0 % change from baseline | Peak-to-peak interval - 3D Mean ([2]; 1 µM): −9.6 % change from baseline | Area under the curve - 3D Mean ([2]; 3 µM): 131.9 % change from baseline | Peak Number—3D Mean ([2]; 3 µM): −4.8 % change from baseline | Peak amplitude - 3D Mean ([2]; 3 µM): 98.4 % change from baseline | Peak width - 3D Mean ([2]; 3 µM): 16.6 % change from baseline | Peak-to-peak interval - 3D Mean ([2]; 3 µM): 6.0 % change from baseline | Free Cmax [3, 7]: 50 to 150 nM | Free Cmax [3, 8]: 50 to 150 nM
